Data from patent US9850206B2, “S1P and/or ATX modulating agents” (BIOGEN MA INC., priority 2012, dated 2017).
Like-named read-outs stand apart in the source and are kept apart here.

What was measured:
[1] = biological target: T1, Human ATX protein (Homo sapiens, UniProt Q13822); test: Autotaxin (ATX) FRET assay with FS-3 substrate; type: biochemical
T1 construct: made in house
Excerpt: ATX (Autotaxin) is a 125 KDa glycoprotein with lysophospholipase D (LPLD) activity that generates the bioactive lipid lysophosphatidic acid (LPA) from lysophosphatidylcholine (LPC). The ATX biochemical assay utilizes a FRET (fluorescence resonance energy transfer) technology platform. […] ATX catalyzes the hydrolysis of the substrate which separates the dabsyl quencher from the fluorescein reporter, which becomes fluorescent. The reaction is monitored by a SpectraMax M5 (Molecular Devices, Sunnyvale, Calif.) with at excitation wavelength 485 nm and emission wavelength 535 nm.
Fatty acid free-BSA (Sigma A8806): 10 mg/mL in H2O, stored at 4° C.
2×ATX assay buffer: 100 mM Tris, 280 mM NaCl, 10 mM KCl, 2 mM CaCl2, 2 mM MgCl2, pH 7.4.
Human ATX protein: expressed and purified in house. Stored at −80° C.
Substrate FS-3 (Echelon, L-2000): 100 μg in 77.74 μL H2O (1 mM stock), stored at −20° C.
Compound dilution—All compounds were provided at 10 mM in 100% DMSO. In the first well, 2 μL of 10 mM compound was added to 78 μL of DMSO (1:40 dilution). In subsequent wells 3-fold dilution (total 10 dilutions) were performed.
1×ATX assay buffer was made up with a final concentration of 1 mg/mL fatty acid free-BSA using 2×ATX assay buffer, 10 mg/ml fatty acid free-BSA and ddH2O.
38 μL was added per well to the assay plate. The final concentration of ATX in the reaction as 1.0 μg/mL.
2 μL per well of compounds was transferred to provide the desired concentration. The plate was centrifuged, then incubated at room temperature for 30 minutes on the shaker.
FS-3 was diluted with 1×ATX assay buffer to a concentration of FS-3 of 10 μM (5×). Then, 10 μL was added per well to the assay plate. The final concentration of FS-3 in the reaction was 2 μM. The plate was centrifuged. The plate was kept shaking at room temperature for 2 hours. Because FS-3 substrate is light sensitive, plates were kept covered and protected from light.

[2] = tested on: OPCs (oligodendrocyte precursor cells); test: OPC differentiation assay; type: cell-based, Sprague Dawley rats; conditions: 2 μM and 20 μM, 3-day incubation
Experimental: Enriched populations of oligodendrocytes were grown from post-natal day 2 (P2) female Sprague Dawley rats. The forebrain was dissected out and placed in Hank's buffered saline solution (HBSS; Invitrogen, Grand Island, N.Y.). The tissue was cut into 1 mm fragments and incubated at 37° C. for 15 minutes in 0.01% trypsin and 10 μg/mL DNase. Dissociated cells were plated on poly-L-lysine-coated T75 tissue culture flasks and grown at 37° C. for 10 days in Dulbecco's modified Eagle's medium (DMEM) with 20% fetal calf serum (Invitrogen). A2B5+OPCs were collected by shaking the flask overnight at 200 rpm and 37° C., resulting in a 95% pure population.
For the differentiation assay, 2 μM and 20 μM antagonist or the same concentrations of vehicle (DMSO) were applied to OPCs cultured in CNTF/T3 containing media. After a 3-day incubation, […], cell were lysed and then subjected to MSD (Meso Scale Discovery-R) analysis. EC50 was calculated by Prism using a nonlinear sigmoidal dose-response curvecells. […] After centrifugation at 14,000 g for 15 minutes, the supernatants were boiled in Laemmli sample buffer, subjected to 4-20% SDS-PAGE, and analyzed by Western blotting with anti-MBP, anti-myelin-associated glycoprotein (MAG), or anti-beta actin antibodies. […]

[3] = biological target: S1P1 (Homo sapiens, UniProt P21453); test: S1P receptor activity assay (calcium flux, FLIPR TETRA), S1P1; type: cell-based
Excerpt: (§1) Agonist percentage activation determinations were obtained by assaying sample compounds and referencing the Emax control for each receptor profiled. Antagonist percentage inhibition determinations were obtained by assaying sample compounds and referencing the control EC80 wells for each receptor profiled. The samples were run using a “Single Addition” assay protocol for the agonist and antagonist assay run. The protocol design was as follows:
(§2) Master stock solution: Unless specified otherwise, all sample compounds were diluted in 100% anhydrous DMSO including all serial dilutions. All control wells contained identical solvent final concentrations as did the sample compound wells.
(§3) Compound plate for assay: The sample compounds were transferred from a master stock solution into a daughter plate that was used in the assay. Each sample compound was diluted into assay buffer (1×HBSS with 20 mM HEPES and 2.5 mM Probenecid) at an appropriate concentration to obtain final concentrations.
(§4) Sample compounds were plated in an eight-point, four-fold dilution series in duplicate with a top concentration of 10 μM. The concentrations described here reflect the final concentration of the compounds during the antagonist assay.
(§5) Reference agonists were handled as mentioned above serving as assay control. The reference agonists were handled as described above for Emax.
(§6) Assay was read for 180 seconds using the […] (This assay run added sample compounds and reference agonist to respective wells). At the completion of the first “Single Addition” assay run, assay plate was removed from the […] and placed at 25° C. for seven (7) minutes.
(§7) Using the EC80 values determined during the agonist assay, stimulated all pre-incubated sample compound and reference antagonist (if applicable) wells with EC80 of reference agonist. Read for 180 seconds using the […] (This assay added reference agonist to respective wells—then fluorescence measurements were collected to calculate percentage inhibition values).
(§8) All plates were subjected to appropriate baseline corrections. Once baseline corrections were processed, maximum fluorescence values were exported and data manipulated to calculate percentage activation, percentage inhibition and Z′.

[4] = biological target: T2, S1P4 (Homo sapiens, UniProt O95977); test: S1P receptor activity assay (calcium flux, FLIPR TETRA), S1P4; type: cell-based
T2 sequence (O95977 1-384): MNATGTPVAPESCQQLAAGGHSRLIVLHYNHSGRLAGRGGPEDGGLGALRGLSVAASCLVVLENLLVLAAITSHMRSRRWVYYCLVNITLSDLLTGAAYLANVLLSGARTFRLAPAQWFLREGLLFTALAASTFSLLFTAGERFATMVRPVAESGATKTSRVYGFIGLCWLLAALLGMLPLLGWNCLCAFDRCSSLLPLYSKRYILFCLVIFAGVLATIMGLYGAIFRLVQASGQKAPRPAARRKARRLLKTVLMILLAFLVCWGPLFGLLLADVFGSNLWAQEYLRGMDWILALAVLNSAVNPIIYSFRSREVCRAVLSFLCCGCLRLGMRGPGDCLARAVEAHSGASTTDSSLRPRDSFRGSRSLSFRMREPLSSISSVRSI
Excerpt: as §1, §2, §3, §4, §5, §6, §7, §8

[5] = biological target: S1P5 (Homo sapiens, UniProt Q9H228); test: S1P receptor activity assay (calcium flux, FLIPR TETRA), S1P5; type: cell-based
Excerpt: as §1, §2, §3, §4, §5, §6, §7, §8

[6] = FS-3 2 μM, ATX 1.0 μg/mL, 2 hours at room temperature, read-out: IC50 (ATX)
[7] = calcium flux, top concentration 10 μM, the >5 μM sentence says only 'for S1P1', read-out: IC50 for S1P1 agonist activity
[8] = calcium flux, top concentration 10 μM, the >5 μM sentence says only 'for S1P4', read-out: IC50 for S1P4 agonist activity
[9] = calcium flux, top concentration 10 μM, read-out: IC50 for S1P5

Chain of S1P5 (Q9H228 whole entry): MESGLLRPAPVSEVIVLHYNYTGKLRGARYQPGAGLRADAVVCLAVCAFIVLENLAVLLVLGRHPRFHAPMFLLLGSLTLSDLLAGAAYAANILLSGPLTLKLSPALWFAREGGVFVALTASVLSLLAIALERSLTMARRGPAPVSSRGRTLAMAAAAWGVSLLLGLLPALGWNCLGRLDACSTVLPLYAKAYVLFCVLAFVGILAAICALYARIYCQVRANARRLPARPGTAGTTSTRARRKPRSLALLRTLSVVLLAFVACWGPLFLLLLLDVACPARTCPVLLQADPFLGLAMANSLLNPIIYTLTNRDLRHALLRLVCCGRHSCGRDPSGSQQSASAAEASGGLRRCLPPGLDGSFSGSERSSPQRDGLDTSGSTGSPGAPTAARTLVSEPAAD
Chain of S1P1 (P21453 whole entry): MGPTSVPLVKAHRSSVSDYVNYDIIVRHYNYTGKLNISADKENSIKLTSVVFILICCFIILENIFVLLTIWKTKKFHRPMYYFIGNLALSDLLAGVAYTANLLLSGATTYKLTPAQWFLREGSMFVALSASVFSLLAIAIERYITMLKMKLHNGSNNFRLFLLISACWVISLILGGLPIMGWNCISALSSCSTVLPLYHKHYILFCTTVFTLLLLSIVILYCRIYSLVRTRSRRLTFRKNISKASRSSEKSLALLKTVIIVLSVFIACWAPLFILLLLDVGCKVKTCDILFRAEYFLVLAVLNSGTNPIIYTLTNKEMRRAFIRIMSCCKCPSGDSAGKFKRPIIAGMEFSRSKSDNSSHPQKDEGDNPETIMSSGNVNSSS

| Structure (SMILES) | IC50 [1] | result in the OPC assay [2] | IC50 [3] | IC50 [4] | IC50 [5] | IC50 [1, 6] | IC50 [3, 7] | IC50 [4, 8] | IC50 [5, 9] |
| --- | --- | --- | --- | --- | --- | --- | --- | --- | --- |
| CCCCCCCCOc1ccc(N2CCN(CCC(=O)O)CC2)cc1 [Example 14, 3-(4-(4-(Octyloxy)phenyl)piperazin-1-yl)propanoic acid] | > 10 µM | positive | > 5 µM | ≤ 2 µM | > 5 µM | – | – | – | – |
| CCCCCCCCOc1ccc(N2CCN(CC34CCC(C(=O)O)(CC3)CC4)CC2)cc1 [Example 16, 4-((4-(4-(Octyloxy)phenyl)piperazin-1-yl)methyl)bicyclo[2.2.2]octane-1-carboxylic acid] | ≤ 5 µM | positive | > 5 µM | ≤ 5 µM | > 5 µM | – | – | – | – |
| O=C(O)CCCCN1CCC(c2ccc(OC3CCC4(CCCC4)CC3)cc2)CC1 [Example 44, 5-(4-(4-(Spiro[4.5]decan-8-yloxy)phenyl)piperidin-1-yl)pentanoic acid] | – | – | – | – | – | > 10 µM | > 5 µM | ≤ 2 µM | ≤ 2 µM |
| CC(C)(C)[C@H]1CC[C@H](Oc2ccc(C3=CCN(CCC(=O)O)CC3)cc2)CC1 [Example 45, 3-(4-(4-((trans-4-(tert-Butyl)cyclohexyl)oxy)phenyl)-5,6-dihydropyridin-1(2H)-yl)propanoic acid] | – | – | 2 to 5 µM | ≤ 2 µM | – | 5 to 10 µM | – | – | > 5 µM |
| CC(C)(C)[C@H]1CC[C@H](Oc2ccc(C3CCN(CCC(=O)O)CC3)cc2)CC1 [Example 46, 3-(4-(4-((trans-4-(tert-Butyl)cyclohexyl)oxy)phenyl)piperidin-1-yl)propanoic acid] | – | – | – | – | – | 5 to 10 µM | ≤ 2 µM | ≤ 2 µM | > 5 µM |
| CC(C)(C)[C@H]1CC[C@H](Oc2ccc(C3=CCN(CCCC(=O)O)CC3)cc2)CC1 [Example 47, 4-(4-(4-((trans-4-(tert-Butyl)cyclohexyl)oxy)phenyl)-5,6-dihydropyridin-1(2H)-yl)butanoic acid] | – | – | ≤ 2 µM | ≤ 2 µM | – | ≤ 5 µM | – | – | ≤ 2 µM |
| CC(C)(C)[C@H]1CC[C@H](Oc2ccc(C3CCN(CCCC(=O)O)CC3)cc2)CC1 [Example 48, 4-(4-(4-((trans-4-(tert-Butyl)cyclohexyl)oxy)phenyl)piperidin-1-yl)butanoic acid] | – | – | – | – | – | ≤ 5 µM | ≤ 2 µM | ≤ 2 µM | ≤ 2 µM |
